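Test compounds were applied to cells in 96-well plates for 48 hours at 5 doses. GI50 marks 50% less growth. TGI: total growth inhibition.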
How the values were obtained:
Assay in all cases: NCI anticancer screen, dose series, 48 h
CCRF-CEM leukemia = test system: CCRF-CEM leukemia
HCT-116 colon = test system: HCT-116 colon
HL-60(TB) leukemia = test system: HL-60(TB) leukemia
HS 578T breast = test system: HS 578T breast
HT29 colon = test system: HT29 colon
K-562 leukemia = test system: K-562 leukemia
LOX IMVI melanoma = test system: LOX IMVI melanoma
MDA-MB-231 breast = test system: MDA-MB-231 breast
MOLT-4 leukemia = test system: MOLT-4 leukemia
NCI-H460 lung = test system: NCI-H460 lung
OVCAR-8 ovarian = test system: OVCAR-8 ovarian
RPMI-8226 leukemia = test system: RPMI-8226 leukemia
SR leukemia = test system: SR leukemia
786-0 renal = test system: 786-0 renal
A498 renal = test system: A498 renal
A549 NSCLC = test system: A549 NSCLC
ACHN renal = test system: ACHN renal
BT-549 breast = test system: BT-549 breast
CAKI-1 renal = test system: CAKI-1 renal
COLO 205 colon = test system: COLO 205 colon
EKVX NSCLC = test system: EKVX NSCLC
HCC-2998 colon = test system: HCC-2998 colon
HCT-15 colon = test system: HCT-15 colon
HOP-62 NSCLC = test system: HOP-62 NSCLC
HOP-92 NSCLC = test system: HOP-92 NSCLC
IGROV1 ovarian = test system: IGROV1 ovarian
KM12 colon = test system: KM12 colon
M14 melanoma = test system: M14 melanoma
MALME-3M melanoma = test system: MALME-3M melanoma
MCF7 breast = test system: MCF7 breast
MDA-MB-435 = test system: MDA-MB-435
NCI-H23 lung = test system: NCI-H23 lung
NCI-H522 lung = test system: NCI-H522 lung
NCI/ADR-RES ovarian = test system: NCI/ADR-RES ovarian
OVCAR-3 ovarian = test system: OVCAR-3 ovarian
OVCAR-4 ovarian = test system: OVCAR-4 ovarian
OVCAR-5 ovarian = test system: OVCAR-5 ovarian
PC-3 prostate = test system: PC-3 prostate
RXF 393 renal = test system: RXF 393 renal
SF-268 CNS = test system: SF-268 CNS
SF-295 CNS = test system: SF-295 CNS
SF-539 CNS = test system: SF-539 CNS
SK-MEL-2 melanoma = test system: SK-MEL-2 melanoma
SK-MEL-28 melanoma = test system: SK-MEL-28 melanoma
SK-MEL-5 melanoma = test system: SK-MEL-5 melanoma
SK-OV-3 ovarian = test system: SK-OV-3 ovarian
SNB-19 CNS = test system: SNB-19 CNS
SNB-75 CNS = test system: SNB-75 CNS
SW-620 colon = test system: SW-620 colon
T-47D breast = test system: T-47D breast
TK-10 renal = test system: TK-10 renal
U251 CNS = test system: U251 CNS
UACC-257 melanoma = test system: UACC-257 melanoma
UACC-62 melanoma = test system: UACC-62 melanoma
UO-31 renal = test system: UO-31 renal
DU-145 prostate = test system: DU-145 prostate
NCI-H226 lung = test system: NCI-H226 lung
SN12C renal = test system: SN12C renal

COc1cc(/C=C/C(=O)c2c(C)nc3ccccc3c2/C=C/c2ccccc2)cc(OC)c1OC
GI50 (CCRF-CEM leukemia): 2090 nM
TGI (CCRF-CEM leukemia): > 100000 nM
GI50 (HCT-116 colon): 514 nM
TGI (HCT-116 colon): 1910 nM
GI50 (HL-60(TB) leukemia): 1630 nM
TGI (HL-60(TB) leukemia): 6000 nM
GI50 (HS 578T breast): 4200 nM
TGI (HS 578T breast): > 100000 nM
GI50 (HT29 colon): 1870 nM
TGI (HT29 colon): > 100000 nM
GI50 (K-562 leukemia): 827 nM
TGI (K-562 leukemia): > 100000 nM
GI50 (LOX IMVI melanoma): 1420 nM
TGI (LOX IMVI melanoma): 2780 nM
GI50 (MDA-MB-231 breast): 2150 nM
TGI (MDA-MB-231 breast): > 100000 nM
GI50 (MOLT-4 leukemia): 2210 nM
TGI (MOLT-4 leukemia): 8610 nM
GI50 (NCI-H460 lung): 1860 nM
TGI (NCI-H460 lung): 4960 nM
GI50 (OVCAR-8 ovarian): 1780 nM
TGI (OVCAR-8 ovarian): > 100000 nM
GI50 (RPMI-8226 leukemia): 2210 nM
TGI (RPMI-8226 leukemia): > 100000 nM
GI50 (SR leukemia): 1140 nM
TGI (SR leukemia): 6540 nM

CCC1(O)C(=O)OCc2c1cc1n(c2=O)Cc2cc3ccccc3nc2-1 (centres undefined)
TGI (786-0 renal): 203 nM
TGI (A498 renal): 4150 nM
TGI (A549 NSCLC): 334 nM
TGI (ACHN renal): 519 nM
TGI (BT-549 breast): > 41400 nM
TGI (CAKI-1 renal): > 31900 nM
TGI (COLO 205 colon): 3550 nM
TGI (EKVX NSCLC): 488 nM
TGI (HCC-2998 colon): 11200 nM
TGI (HCT-116 colon): 614 nM
TGI (HCT-15 colon): 17100 nM
TGI (HL-60(TB) leukemia): 65.9 nM
TGI (HOP-62 NSCLC): 319 nM
TGI (HOP-92 NSCLC): 23900 nM
TGI (HS 578T breast): > 100000 nM
TGI (HT29 colon): 394 nM
TGI (IGROV1 ovarian): 5960 nM
TGI (K-562 leukemia): > 100000 nM
TGI (KM12 colon): > 100000 nM
TGI (LOX IMVI melanoma): 1330 nM
TGI (M14 melanoma): 27.1 nM
TGI (MALME-3M melanoma): 11800 nM
TGI (MCF7 breast): 2060 nM
TGI (MDA-MB-231 breast): 7060 nM
TGI (MDA-MB-435): 8350 nM
TGI (NCI-H23 lung): 80.6 nM
TGI (NCI-H460 lung): 10700 nM
TGI (NCI-H522 lung): 3890 nM
TGI (NCI/ADR-RES ovarian): 2150 nM
TGI (OVCAR-3 ovarian): 2720 nM
TGI (OVCAR-4 ovarian): > 100000 nM
TGI (OVCAR-5 ovarian): 1250 nM
TGI (OVCAR-8 ovarian): 15700 nM
TGI (PC-3 prostate): 23900 nM
TGI (RPMI-8226 leukemia): 1890 nM
TGI (RXF 393 renal): 527 nM
TGI (SF-268 CNS): 15200 nM
TGI (SF-295 CNS): 226 nM
GI50 (SF-539 CNS): 10.7 nM
TGI (SF-539 CNS): > 100000 nM
TGI (SK-MEL-2 melanoma): 3520 nM
TGI (SK-MEL-28 melanoma): 18400 nM
TGI (SK-MEL-5 melanoma): 312 nM
TGI (SK-OV-3 ovarian): 7110 nM
TGI (SNB-19 CNS): 66.7 nM
TGI (SNB-75 CNS): 190 nM
TGI (SW-620 colon): > 41200 nM
TGI (T-47D breast): > 33600 nM
TGI (TK-10 renal): 50500 nM
TGI (U251 CNS): 570 nM
TGI (UACC-257 melanoma): 3570 nM
TGI (UACC-62 melanoma): 37.9 nM
TGI (UO-31 renal): 156 nM

CC1=C([Se]CC(OC(=O)CC[Se]c2ccccc2)C(=O)NC(C)(C)C)C(=O)c2ccccc2C1=O (centres undefined)
GI50 (786-0 renal): 1830 nM
TGI (786-0 renal): 3230 nM
GI50 (A498 renal): 2820 nM
TGI (A498 renal): 6420 nM
GI50 (A549 NSCLC): 1630 nM
TGI (A549 NSCLC): 3610 nM
GI50 (ACHN renal): 1860 nM
TGI (ACHN renal): 3690 nM
GI50 (BT-549 breast): 1640 nM
TGI (BT-549 breast): 3150 nM
GI50 (CAKI-1 renal): 2370 nM
TGI (CAKI-1 renal): 4580 nM
GI50 (CCRF-CEM leukemia): 628 nM
TGI (CCRF-CEM leukemia): 4100 nM
GI50 (COLO 205 colon): 1600 nM
TGI (COLO 205 colon): 3130 nM
GI50 (DU-145 prostate): 1970 nM
TGI (DU-145 prostate): 3600 nM
GI50 (EKVX NSCLC): 1730 nM
TGI (EKVX NSCLC): 3800 nM
GI50 (HCC-2998 colon): 1760 nM
TGI (HCC-2998 colon): 3200 nM
GI50 (HCT-116 colon): 1470 nM
TGI (HCT-116 colon): 2860 nM
GI50 (HCT-15 colon): 2470 nM
TGI (HCT-15 colon): 5860 nM
GI50 (HL-60(TB) leukemia): 1070 nM
TGI (HL-60(TB) leukemia): 2920 nM
GI50 (HOP-62 NSCLC): 357 nM
TGI (HOP-62 NSCLC): 1700 nM
GI50 (HOP-92 NSCLC): 1550 nM
TGI (HOP-92 NSCLC): 2920 nM
GI50 (HT29 colon): 1960 nM
TGI (HT29 colon): 3640 nM
GI50 (IGROV1 ovarian): 1530 nM
TGI (IGROV1 ovarian): 2940 nM
GI50 (K-562 leukemia): 729 nM
TGI (K-562 leukemia): 3080 nM
GI50 (KM12 colon): 1590 nM
TGI (KM12 colon): 3200 nM
GI50 (LOX IMVI melanoma): 1940 nM
TGI (LOX IMVI melanoma): 4700 nM
GI50 (M14 melanoma): 1670 nM
TGI (M14 melanoma): 3210 nM
GI50 (MALME-3M melanoma): 2100 nM
TGI (MALME-3M melanoma): 4460 nM
GI50 (MCF7 breast): 1690 nM
TGI (MCF7 breast): 3730 nM
GI50 (MDA-MB-231 breast): 1550 nM
TGI (MDA-MB-231 breast): 3010 nM
GI50 (MDA-MB-435): 2210 nM
TGI (MDA-MB-435): 4700 nM
GI50 (MOLT-4 leukemia): 545 nM
TGI (MOLT-4 leukemia): 3440 nM
GI50 (NCI-H226 lung): 2000 nM
TGI (NCI-H226 lung): 4560 nM
GI50 (NCI-H23 lung): 1560 nM
TGI (NCI-H23 lung): 3110 nM
GI50 (NCI-H460 lung): 426 nM
TGI (NCI-H460 lung): 2020 nM
GI50 (NCI-H522 lung): 1670 nM
TGI (NCI-H522 lung): 3340 nM
GI50 (NCI/ADR-RES ovarian): 1630 nM
TGI (NCI/ADR-RES ovarian): 3180 nM
GI50 (OVCAR-3 ovarian): 1610 nM
TGI (OVCAR-3 ovarian): 3110 nM
GI50 (OVCAR-4 ovarian): 1610 nM
TGI (OVCAR-4 ovarian): 3000 nM
GI50 (OVCAR-5 ovarian): 1750 nM
TGI (OVCAR-5 ovarian): 3180 nM
GI50 (OVCAR-8 ovarian): 1770 nM
TGI (OVCAR-8 ovarian): 3270 nM
GI50 (PC-3 prostate): 1480 nM
TGI (PC-3 prostate): 2800 nM
GI50 (SF-268 CNS): 1760 nM
TGI (SF-268 CNS): 3290 nM
GI50 (SF-295 CNS): 316 nM
TGI (SF-295 CNS): 1370 nM
GI50 (SF-539 CNS): 1750 nM
TGI (SF-539 CNS): 3150 nM
GI50 (SK-MEL-2 melanoma): 2000 nM
TGI (SK-MEL-2 melanoma): 3700 nM
GI50 (SK-MEL-28 melanoma): 2080 nM
TGI (SK-MEL-28 melanoma): 3550 nM
GI50 (SK-MEL-5 melanoma): 1820 nM
TGI (SK-MEL-5 melanoma): 3270 nM
GI50 (SK-OV-3 ovarian): 1450 nM
TGI (SK-OV-3 ovarian): 2810 nM
GI50 (SN12C renal): 1670 nM
TGI (SN12C renal): 3130 nM
GI50 (SNB-19 CNS): 638 nM
TGI (SNB-19 CNS): 2050 nM
GI50 (SNB-75 CNS): 1470 nM
TGI (SNB-75 CNS): 2820 nM
GI50 (SR leukemia): 938 nM
TGI (SR leukemia): 3370 nM
GI50 (SW-620 colon): 1910 nM
TGI (SW-620 colon): 3880 nM
GI50 (T-47D breast): 1680 nM
TGI (T-47D breast): 3880 nM
GI50 (TK-10 renal): 1990 nM
TGI (TK-10 renal): 3620 nM
GI50 (U251 CNS): 1140 nM
TGI (U251 CNS): 3770 nM
GI50 (UACC-257 melanoma): 1570 nM
TGI (UACC-257 melanoma): 2950 nM
GI50 (UACC-62 melanoma): 1480 nM
TGI (UACC-62 melanoma): 2830 nM
GI50 (UO-31 renal): 1170 nM
TGI (UO-31 renal): 2430 nM

From PubChem BioAssay (NCI)
